The test system of experiment [1] is submissive rats. In words: Reduction of Submissive Behavior Model (RSBM) of depression, dominant-submissive rat food competition test. It counts as in vivo, Sprague-Dawley rats. To be noted: treatment of submissive rats; unpublished observation. An excerpt:
In this study, the effects of COMPOUND #7 on dominant or submissive behavior in pairs of rats competing for food are examined. It has been shown that anti-manic drugs, including anticonvulsants, decrease dominance and antidepressant drugs reduce submissiveness. This model uses dominant behavior as a model of mania and submissive behavior as a model of depression. The dominance and submissiveness is defined in a competition test and measured as the relative success of two food-restricted rats to gain access to a feeder. Rats are randomly paired and placed in an apparatus allowing them to compete for a food reward. The dominant-submissive relationship develops over a 2-week period. The submissive or dominant animals in pairs selected after 2 weeks of training were treated orally […] (b.i.d.) with COMPOUND #7 at 3 or 30 mg/kg for 5 weeks. The partner of the drug-treated animal was treated with vehicle.
The objective of this study was to determine if COMPOUND #7 is active in the Reduction of Submissive Behavior Model (RSBM) of depression and the Reduction of Dominant Behavior Model (RDBM) of mania. Measurements were made at two doses (3 and 30 mg/kg) after oral twice a day (b.i.d.) administration. The effect of the drug in the RSBM was compared to the effect of fluoxetine (10 mg/kg) and vehicle (0.5% methylcellulose). The effect of the drug in the RDBM was compared with the effect of lithium (100 mg/kg) and vehicle (0.5% methylcellulose). The endpoints measured were the development of a significant reduction of submissive or dominant behavior and its time of onset.
The DSR developed by two rats competing for food uses the apparatus in FIG. 1.
In the experiments described in this report Sprague-Dawley rats weighing 160 to 180 g were used. Testing for the development of a DSR between paired rats begins with the random assignment of rats into pairs. […]
The test involves placing each member of a pair in opposite chambers of the testing apparatus. […] The test is conducted once a day over a 5-minute period and the time spent on the feeder by each animal is recorded. […]

In a further experiment the test system is dominant rats. To be noted: administered to dominant rats; literature (Malatynska 2002); cited from earlier work.
Experiment [2] has as its system submissive rats. To be noted: treatment of the submissive subject, 3 weeks; literature (Malatynska 2002); cited from earlier work.

Read-outs that look alike come from different tables or passages of the source.

On to `CC(N)Cc1ccccc1` (centres unmarked) [amphetamine, reference compound], for which the “Effect on submissive behavior” value with submissive rats [1] is “ineffective”. Consider `NC(=O)N1c2ccccc2C=Cc2ccccc21` [carbamazepine], for which the “Effect on competitive behavior of dominant rats” value (from here on “Effect on competitive behavior”) in the experiment on dominant rats was “significantly reduced competitive behavior”.

`Clc1cccc(Cl)c1N=C1NCCN1` [clonidine]: in the experiment with dominant rats, the “Effect on competitive behavior” value is “significantly reduced competitive behavior”. `CNCCCN1c2ccccc2CCc2ccccc21` [desipramine]: the “Effect on submissive behavior” value in the experiment on submissive rats [2] was “reduced submissive behavior”. On to `CN1C(=O)CN=C(c2ccccc2)c2cc(Cl)ccc21` [diazepam], for which, in the experiment on submissive rats [2], the “Effect on submissive behavior” value is “ineffective”. Regarding `CNCCC(Oc1ccc(C(F)(F)F)cc1)c1ccccc1` (centres unmarked) [fluoxetine], in the experiment on submissive rats [2], the “Effect on submissive behavior” value is “reduced submissive behavior”. With `CN(C)CCCN1c2ccccc2CCc2ccccc21` [imipramine], the “Effect on submissive behavior” value in the experiment on submissive rats [2] was “reduced submissive behavior”.

As for `CCCC(CCC)C(=O)[O-].[Na+]` [sodium valproate], in the experiment with dominant rats, the “Effect on competitive behavior” value is “significantly reduced competitive behavior”.

These data come from patent US20080103199A1, “TREATMENT OF PERVASIVE DEVELOPMENTAL DISORDERS” (priority 2006, published 2008).
